What all share (experiment): competitive isoTOP-ABPP
Common to all, as to type: binding

In assay [1] the target is T1, SIN3A Paired amphipathic helix protein Sin3a (Homo sapiens, UniProt Q96ST3).
T1 construct: isoTOP-ABPP experiments performed in cell lysates (in vitro); endogenous in cells; host or cells: soluble proteome of human cancer cell lines (MDA-MB-231; Ramos and Jurkat also prepared)
T1 sequence (Q96ST3 1-1273): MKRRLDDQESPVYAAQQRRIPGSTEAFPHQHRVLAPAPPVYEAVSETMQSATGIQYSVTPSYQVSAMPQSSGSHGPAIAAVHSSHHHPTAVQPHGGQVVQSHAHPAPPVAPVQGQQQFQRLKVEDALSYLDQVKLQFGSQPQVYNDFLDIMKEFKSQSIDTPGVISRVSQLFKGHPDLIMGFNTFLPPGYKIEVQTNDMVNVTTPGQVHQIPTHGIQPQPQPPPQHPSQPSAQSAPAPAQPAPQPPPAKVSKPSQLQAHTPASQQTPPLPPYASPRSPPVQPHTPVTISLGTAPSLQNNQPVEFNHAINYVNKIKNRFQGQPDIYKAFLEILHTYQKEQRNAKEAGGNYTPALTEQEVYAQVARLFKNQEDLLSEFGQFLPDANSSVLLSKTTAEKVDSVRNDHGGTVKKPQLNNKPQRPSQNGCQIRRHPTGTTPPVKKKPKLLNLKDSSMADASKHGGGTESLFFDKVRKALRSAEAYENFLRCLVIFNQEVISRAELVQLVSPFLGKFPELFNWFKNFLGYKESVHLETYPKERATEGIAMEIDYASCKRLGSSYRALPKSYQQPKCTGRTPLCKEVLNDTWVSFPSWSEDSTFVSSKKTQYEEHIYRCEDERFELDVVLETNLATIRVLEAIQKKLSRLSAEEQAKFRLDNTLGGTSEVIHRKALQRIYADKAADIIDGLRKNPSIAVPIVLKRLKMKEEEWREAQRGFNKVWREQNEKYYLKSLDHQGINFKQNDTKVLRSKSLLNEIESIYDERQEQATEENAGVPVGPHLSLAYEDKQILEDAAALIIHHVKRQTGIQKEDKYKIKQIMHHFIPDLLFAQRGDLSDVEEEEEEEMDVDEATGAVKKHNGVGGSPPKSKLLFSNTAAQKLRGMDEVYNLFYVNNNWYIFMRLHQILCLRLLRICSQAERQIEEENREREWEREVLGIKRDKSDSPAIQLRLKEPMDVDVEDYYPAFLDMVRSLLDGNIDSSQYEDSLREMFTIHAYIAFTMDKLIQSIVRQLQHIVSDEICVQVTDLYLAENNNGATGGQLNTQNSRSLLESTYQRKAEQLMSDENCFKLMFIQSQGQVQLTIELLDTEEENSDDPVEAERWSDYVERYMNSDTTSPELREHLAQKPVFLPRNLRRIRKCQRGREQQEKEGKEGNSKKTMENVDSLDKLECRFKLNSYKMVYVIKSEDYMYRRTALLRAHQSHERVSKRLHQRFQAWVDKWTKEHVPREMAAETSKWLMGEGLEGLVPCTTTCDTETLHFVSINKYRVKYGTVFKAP
The conditions noted are these: for isoTOP-ABPP ratio (R) at liganded lysine Q96ST3_K155: 50 uM, in vitro, sol, 231; for isoTOP-ABPP ratio, lysine Q96ST3_K155: possible other lysine Q96ST3_K152. A digest of the protocol:
(§1)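 Cell lysate treated in vitro with fragments (50 μM activated esters, 100 μM guanidinylating agents) or DMSO, labelled 1 h at ambient temperature with 0.1 mM STP-alkyne, CuAAC-tagged with light/heavy TEV tags, analysed by MS. R = DMSO/compound MS1 peak-area ratio; lysines with R≥4 called liganded.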

Assay [2] has as its target T2, RQCD1 Cell differentiation protein RCD1 homolog (Homo sapiens, UniProt Q92600).
T2 construct: isoTOP-ABPP experiments performed in cell lysates (in vitro); endogenous in cells; host or cells: soluble proteome of human cancer cell lines (MDA-MB-231; Ramos and Jurkat also prepared)
The conditions noted are these: for isoTOP-ABPP ratio (R) at liganded lysine Q92600_K230: 50 uM, in vitro, sol, 231. Summed up: as §1

A further assay deals with T3, OLA1 Obg-like ATPase 1 (Homo sapiens, UniProt Q9NTK5).
T3 construct: endogenous in cells; host or cells: MDA-MB-231 (soluble fraction of lysate)
The conditions noted are these: for isoTOP-ABPP ratio (R) at liganded lysine Q9NTK5_K248: 50 uM, in vitro, sol, 231. Summed up: as §1

Molecules are shown by their SMILES.

T2 sequence (Q92600 whole entry): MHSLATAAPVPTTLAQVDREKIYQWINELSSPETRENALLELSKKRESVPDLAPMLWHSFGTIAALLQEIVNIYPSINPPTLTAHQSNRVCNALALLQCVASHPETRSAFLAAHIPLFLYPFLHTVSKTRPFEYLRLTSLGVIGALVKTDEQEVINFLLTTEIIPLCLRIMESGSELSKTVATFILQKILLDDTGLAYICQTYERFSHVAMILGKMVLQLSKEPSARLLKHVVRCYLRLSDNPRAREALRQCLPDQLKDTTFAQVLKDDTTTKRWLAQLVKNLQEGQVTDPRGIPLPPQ

For the molecule `O=C(CC12CC3CC(CC(C3)C1)C2)Oc1ccc([N+](=O)[O-])cc1[N+](=O)[O-]` [fragment 38, 2,4-Dinitrophenyl 2-(adamantan-1-yl)acetate], in assay [1], the “isoTOP-ABPP ratio (R) at liganded lysine Q96ST3_K155” value is 1.2. Also, the “isoTOP-ABPP ratio (R) at liganded lysine Q92600_K230” value in assay [2] amounted to 0.9. Moreover, the “isoTOP-ABPP ratio (R) at liganded lysine Q9NTK5_K248” value on OLA1 Obg-like ATPase 1 was 0.9.
`O=C(Oc1ccc([N+](=O)[O-])cc1[N+](=O)[O-])c1ccc(Oc2ccccc2)cc1` [fragment 39, 2,4-Dinitrophenyl 4-phenoxybenzoate]: in assay [1], the “isoTOP-ABPP ratio (R) at liganded lysine Q96ST3_K155” value was 1.0. The “isoTOP-ABPP ratio (R) at liganded lysine Q92600_K230” value in assay [2] was 0.8. In addition, the “isoTOP-ABPP ratio (R) at liganded lysine Q9NTK5_K248” value on OLA1 Obg-like ATPase 1 is listed as 0.9.
As for `O=C(Oc1ccc([N+](=O)[O-])cc1[N+](=O)[O-])c1ccccc1Nc1cccc(C(F)(F)F)c1` [fragment 40, 2,4-Dinitrophenyl 2-((3-(trifluoromethyl)phenyl)amino)benzoate], the “isoTOP-ABPP ratio (R) at liganded lysine Q96ST3_K155” value in assay [1] came to 1.1. Moreover, the “isoTOP-ABPP ratio (R) at liganded lysine Q92600_K230” value in assay [2] is on record as 0.9. In addition, the “isoTOP-ABPP ratio (R) at liganded lysine Q9NTK5_K248” value at OLA1 Obg-like ATPase 1 worked out at 0.9.
On to `CC(C)(C)OC(=O)NCCCC(=O)Oc1ccc([N+](=O)[O-])cc1[N+](=O)[O-]` [fragment 41, 2,4-Dinitrophenyl 4-((tert-butoxycarbonyl)amino)butanoate], for which the “isoTOP-ABPP ratio (R) at liganded lysine Q96ST3_K155” value in assay [1] was found to be 1.3. Also, in assay [2], the “isoTOP-ABPP ratio (R) at liganded lysine Q92600_K230” value stood at 2.6. For the same molecule, the “isoTOP-ABPP ratio (R) at liganded lysine Q9NTK5_K248” value at OLA1 Obg-like ATPase 1 amounted to 1.0.
With `O=C(Oc1ccc([N+](=O)[O-])cc1[N+](=O)[O-])C(c1ccccc1)(c1ccccc1)c1ccccc1` [fragment 42, 2,4-Dinitrophenyl 2,2,2-triphenylacetate], the “isoTOP-ABPP ratio (R) at liganded lysine Q96ST3_K155” value in assay [1] turned out to be 0.9. The “isoTOP-ABPP ratio (R) at liganded lysine Q92600_K230” value in assay [2] is 0.8. Also, the “isoTOP-ABPP ratio (R) at liganded lysine Q9NTK5_K248” value at OLA1 Obg-like ATPase 1 turned out to be 1.0.
The matching figures for `CC(=O)Oc1ccc([N+](=O)[O-])cc1[N+](=O)[O-]` [fragment 43, 2,4-Dinitrophenyl acetate]: 1.2, 6.8 and 1.0.
Turning to `N#Cc1ccc(C(=O)Oc2ccc([N+](=O)[O-])cc2[N+](=O)[O-])cc1` [fragment 44, 2,4-Dinitrophenyl 4-cyanobenzoate], the “isoTOP-ABPP ratio, lysine Q96ST3_K155” value in assay [1] (50 uM_231_sol_in vitro) amounted to 1.5. Moreover, the “isoTOP-ABPP ratio, lysine Q92600_K230” value in assay [2] (50 uM_231_sol_in vitro) is reported as 1.0. Also, at OLA1 Obg-like ATPase 1 (50 uM_231_sol_in vitro), the “isoTOP-ABPP ratio, lysine Q9NTK5_K248” value was 1.1.
Take `O=C(CCc1ccc2c(c1)OCO2)Oc1ccc([N+](=O)[O-])cc1[N+](=O)[O-]` [fragment 45, 2,4-Dinitrophenyl 3-(benzo[d][1,3]dioxol-5-yl)propanoate]: the “isoTOP-ABPP ratio, lysine Q96ST3_K155” value in assay [1] (50 uM_231_sol_in vitro) worked out at 1.5. Also, the “isoTOP-ABPP ratio, lysine Q92600_K230” value in assay [2] (50 uM_231_sol_in vitro) was found to be 1.7. The “isoTOP-ABPP ratio, lysine Q9NTK5_K248” value at OLA1 Obg-like ATPase 1 (50 uM_231_sol_in vitro) was determined as 1.0.
In the case of `O=C(ON1C(=O)CCC1=O)c1cc(C(F)(F)F)cc(C(F)(F)F)c1` [fragment 46, 3,5-Bis(trifluoromethyl)benzoic acid NHS ester], the “isoTOP-ABPP ratio, lysine Q96ST3_K155” value in assay [1] (50 uM_231_sol_in vitro) turned out to be 4.4. The “isoTOP-ABPP ratio, lysine Q92600_K230” value in assay [2] (50 uM_231_sol_in vitro) was found to be 1.1. Further, the “isoTOP-ABPP ratio, lysine Q9NTK5_K248” value at OLA1 Obg-like ATPase 1 (50 uM_231_sol_in vitro) was 1.2.
In the case of `O=C(Oc1c(F)c(F)c(C(F)(F)F)c(F)c1F)c1cc(C(F)(F)F)cc(C(F)(F)F)c1` [fragment 47, 2,3,5,6-Tetrafluoro-4-(trifluoromethyl)phenyl 3,5-bis(trifluoromethyl)benzoate], the “isoTOP-ABPP ratio, lysine Q96ST3_K155” value in assay [1] (50 uM_231_sol_in vitro) turned out to be 1.8. The “isoTOP-ABPP ratio, lysine Q92600_K230” value in assay [2] (50 uM_231_sol_in vitro) is recorded as 0.8. On OLA1 Obg-like ATPase 1 (50 uM_231_sol_in vitro), the “isoTOP-ABPP ratio, lysine Q9NTK5_K248” value is listed as 1.2.
As for `CC(C)(C)OC(=O)N=C(NC(=O)OC(C)(C)C)n1cccn1` [fragment 50, reference compound], the “isoTOP-ABPP ratio, lysine Q96ST3_K155” value in assay [1] (100 uM_231_sol_in vitro) was determined as 3.5. In addition, the “isoTOP-ABPP ratio, lysine Q92600_K230” value in assay [2] (100 uM_231_sol_in vitro) came out at 1.0. Besides, the “isoTOP-ABPP ratio, lysine Q9NTK5_K248” value on OLA1 Obg-like ATPase 1 (100 uM_231_sol_in vitro) turned out to be 2.1.
Consider `NC(=O)c1cc(C(F)(F)F)cc(C(F)(F)F)c1` [fragment 51, reference compound], for which the “isoTOP-ABPP ratio, lysine Q96ST3_K155” value in assay [1] (50 uM_231_sol_in vitro) was found to be 1.1. Also, the “isoTOP-ABPP ratio, lysine Q92600_K230” value in assay [2] (50 uM_231_sol_in vitro) is reported as 0.9. Also, the “isoTOP-ABPP ratio, lysine Q9NTK5_K248” value on OLA1 Obg-like ATPase 1 (50 uM_231_sol_in vitro) was found to be 0.9.
